Experiment [1] deals with NF54 strain of P. falciparum. Put plainly: Ring-stage-specific drug activity (pLDH). It counts as cell-based. The settings on record: Plasmodium falciparum, median ± SEM. As to the method:
Each compound was dissolved in dimethyl sulfoxide (DMSO) and diluted in RPMI-1640 medium into seven different concentrations, which were tested against CQ-susceptible strains (NF54 or D10) or a CQ-resistant strain (W2). Each well of 96-well plates was filled with 100 µL drug and 100 µL parasitized RBC (asynchronous parasite culture), which were mixed to obtain a final parasitemia of 1.0% to 1.5% and 1.0% hematocrit. Plates were incubated for 72 h at 37°C in a standard gas mixture; then, parasite growth was determined by measuring the activity of the parasite lactate dehydrogenase (pLDH) ([38]). Briefly, at the end of incubation, the cultures were carefully resuspended, and 20 µL aliquots were removed and added to 100 µL Malstat reagent in a 96-well microplate. The Malstat reagent is made of 0.125% TritonX-100, 130 mM L-lactate, 30 mM Tris buffer, and 0.62 µM 3-acetylpyridine adenine dinucleotide. After that, 20 µL 1.9 µM nitro blue tetrazolium (NBT) and 0.24 µM phenazine ethyl sulfate were added to the plate. NBT was reduced to blueformazan and spectrophotometrically read at OD 650 nm using a Synergy 4 microplate reader (BioTek, Santa Clara, USA). […] IC50 values were expressed as means of two to three independent experiments, with each drug concentration in duplicate.
The NF54 strain of P. falciparum was employed to test the drugs’ activity against ring stages and asynchronous parasite culture (all stages). The ring stages were obtained by synchronization with D-Sorbitol using a standard method ([39]). Each well of 96-well plates was filled with 100 µL each drug and 100 µL culture containing ring-stage or asynchronous parasites, which were mixed to obtain a final parasitemia of 1.0% to 1.5% and 1.0% hematocrit. […] Plates were processed using the pLDH method, and IC50 values were calculated as described above. At least two to three independent experiments were performed, using two technical replicates.
^[a] Synchronized ring-stage parasites were incubated in the presence of compounds for 6 h, drugs were removed by washing, and plates were incubated for an additional 66 h. ^[b] Asynchronous parasites were incubated in the presence of compounds for 6 h, drugs were removed by washing, and plates were incubated for an additional 66 h. ^[c] Asynchronous parasites were incubated in the presence of compounds for 72 h. ^[a,b^] Experiments were performed in parallel. ^[d] […] Parasite viability was determined by parasite lactate dehydrogenase. Data are from three experiments performed in duplicate. MFQ = mefloquine; DHA = dihydroartemisinin; SEM = standard error of the mean.

Experiment [2] has as its system 3D7 strain of P. falciparum. Nature of the experiment: Host cell-mediated drug degradation: antiplasmodial activity of uRBC supernatants. It counts as cell-based, Plasmodium falciparum. The conditions noted are these: for IC50: Plasmodium falciparum, 3D7, 0.16 h, 500 nM drug, 3D7, SYBR Green I, median ± SEM (AQ mean, 95% CI), read-out: IC50 of supernatants harvested at 0.16 h; for Fold changes (24 h/0.16 h): 3D7, ratio of IC50 at 24 h to IC50 at 0.16 h. As to the method:
Each well of 96-well plates was filled with 125 µL drug (1000 nM) and 125 µL uninfected red blood cells (uRBC), which were mixed to obtain a final drug concentration of 500 nM and 2.5% or 1.0% hematocrit. The plates were incubated at 37°C in the standard gas mixture. After each time point (10 min, 6 h, and 24 h), supernatants were carefully harvested and stored at −80°C until use. […] Next, supernatants were diluted in a complete medium in six different dilutions and were aliquoted in new plates. The antimalarial activity of these supernatants and freshly dissolved drugs was determined in an asynchronous parasite culture of P. falciparum (3D7, D10, and W2 strains) for 72 h using the same method described above, and parasite viability was assessed by the pLDH ([38]) and SYBR Green I ([41]) methods. Only the experiments where the IC50 values of the supernatants harvested at 10 min were the same as those of the respective fresh drugs were considered for determining equivalent drug concentration. […] Decay in drug concentration was estimated by using the normalized slope values calculated from linear regression fits using the slope values of a standard curve as reference. Three independent experiments were performed using two replicates.
Figure S5: Data associated to Figure 3 in the main text of the manuscript. Panel A: Representative response-concentration curves of the antiplasmodial activity of supernatant-derived uRBC (2.5% hematocrit) harvested at indicated times (0.16, 6, and 24 h). Drug activity on parasite viability was determined 72 h after parasite incubation (3D7 strain, asynchronous). Values were subtracted from control (without treatment), transformed, and normalized to calculate nonlinear fit. Parasite viability was determined by SYBR Green I. Values are mean and error bars are the standard deviation of a single experiment, each concentration in duplicate. […] Footnotes: ^[a] Parasite viability was determined by SYBR Green I. ^[b^] Parasite viability was determined by pLDH readout. Values are median ± SEM of three independent experiments, each concentration in duplicate. ^[c^] […] These values are expressed as mean and 95% confidence interval (CI) of one experiment, each concentration in duplicate. […] Unpaired two-tailed t-test at 95% CI: *p <0.05; **p <0.01.

The subject of a further experiment is F32-ART parasites. Nature of the experiment: In vitro recrudescence assay. Type of experiment: cell-based, Plasmodium falciparum. The settings on record: 700 nM, 48 h exposure; for Recrudescence time in days (median; range), Recrudescence assay F32-ART: monitored up to 30 days. The protocol:
(§1) Parasites were washed with RPMI-1640 medium before being placed in drug-free culture conditions with 10% human serum. Parasitemia was determined daily by Giemsa-staining of blood smears until the cultures reached their initial parasitemia, defined as the recrudescence day. […] Two independent experiments were performed ([10]).

The test system of a further experiment is F32-TEM parasites. Put plainly: In vitro recrudescence assay. The conditions noted are these: 700 nM, 48 h exposure, monitored up to 30 days. Type of experiment: cell-based, Plasmodium falciparum. The protocol: as §1
The mark [3] stands for this setting: asynchronous parasites, 6 h drug, wash, additional 66 h, read-out: IC50, Asynchronous.
Where [4] appears, read: asynchronous parasites, 72 h continuous drug, read-out: IC50, 72 h.
Setting [5] is: synchronized ring stages, 6 h drug, wash, additional 66 h, read-out: IC50, Ring stages.

The source of these data is PMC11232401, “Characterization of antimalarial activity of artemisinin-based hybrid drugs” (Antimicrobial Agents and Chemotherapy, 2024).

Broadly, the IC50 is the concentration needed to halve the response being measured.

Where two headings read alike, the source gives them in different places. Some results are limits rather than exact numbers.

For the compound `CC1CCC2C(C)C(OC(=O)CCC(=O)OCCNc3ccnc4cc(Cl)ccc34)OC3OC4(C)CCC1C32OO4` (centres unmarked) [Hybrid 2], the IC50 in experiment [1] (setting [3]) worked out at 19.1 ± 1.8 nM; in experiment [1] (setting [4]), 8.1 ± 1 nM; in experiment [1] (setting [5]), 9 ± 1.5 nM; in experiment [2] (uRBC 1.0% hematocrit), 3.4 ± 0.33 nM; in experiment [2] (uRBC 2.5% hematocrit), 2.8 ± 0.51 nM. Further, the “Fold changes (24 h/0.16 h)” value in experiment [2] (uRBC 1.0% hematocrit) came out at 1.1 ± 0.31; in experiment [2] (uRBC 2.5% hematocrit), 10; in experiment [2] (uRBC 2.5% hematocrit, listed as 163A (2)), 10.7 ± 4.1. In addition, the “Recrudescence time in days (median; range), Recrudescence assay F32-ART” value (from here on “Recrudescence time … Recrudescence assay F32-ART”) with F32-ART parasites was 7.5 (7–8) days. Moreover, in the experiment on F32-TEM parasites, the “Recrudescence time in days (median; range), Recrudescence assay F32-TEM” value (shortened to “Recrudescence time … Recrudescence assay F32-TEM”) is 16 (14–18) days.
For the compound `COCCOCCOCCOCCn1c(-c2ccc(-n3cc(-c4ccc(OC5OC6OC7(C)CCC8C(C)CCC(C5C)C68OO7)cc4)nn3)cc2)nc2ccccc21` (centres unmarked) [Hybrid 1], the IC50 stood at 3.5 ± 0.3 nM in experiment [1] (setting [3]), 3 ± 0.3 nM in experiment [1] (setting [4]), 1.5 ± 0.3 nM in experiment [1] (setting [5]) and 1.3 ± 0.44 nM in experiment [2] (uRBC 2.5% hematocrit). Moreover, the “Fold changes (24 h/0.16 h)” value stood at 1.0 ± 0.23 in experiment [2] (uRBC 1.0% hematocrit); 3 in experiment [2] (uRBC 2.5% hematocrit); 3.6 ± 0.8 in experiment [2] (uRBC 2.5% hematocrit, listed as LH70 (1)). The “Recrudescence time … Recrudescence assay F32-ART” value in the experiment on F32-ART parasites is listed as 11.5 (10– 13) days. Further, the “Recrudescence time … Recrudescence assay F32-TEM” value in the experiment with F32-TEM parasites was > 20 (21–>30) days.
As for `C[C@H]1[C@@H](O)O[C@@H]2O[C@@]3(C)CC[C@H]4[C@H](C)CC[C@@H]1[C@@]24OO3` [DHA, dihydroartemisinin, reference compound], the IC50 in experiment [1] (setting [3]) is 4.6 ± 0.9 nM; in experiment [1] (setting [4]) it was 2.1 ± 0.6 nM; in experiment [1] (setting [5]), 5 ± 0.5 nM; in experiment [2] (uRBC 1.0% hematocrit) it was 4.5 ± 1.1 nM; in experiment [2] (uRBC 2.5% hematocrit) it was 6.7 ± 2.5 nM. The “loss in supernatant activity, supernatant harvested at 6 h” value in experiment [2] (high hematocrit (2.5%)) is “fourfold”. Also, in experiment [2] (low hematocrit (1%)), the “loss in antiplasmodial activity of supernatants harvested at 6 h” value is reported as 2 fold. Also, in the experiment with F32-ART parasites, the “delay in recrudescence between F32-ART and F32-TEM” value was 8 days. In the experiment with F32-ART parasites, the “Recrudescence time … Recrudescence assay F32-ART” value is given as 7.5 (7–8) days. For the same compound, the “Recrudescence time … Recrudescence assay F32-TEM” value with F32-TEM parasites is reported as 16.5 (15–18) days.
